Here are results for 15 molecules from US6596772B1, “Phosphate mimics and methods of treatment using phosphatase inhibitors” (Sugen, Inc., priority 1999, dated 2003).

pIC50: −log10 of the molar value.

Holding throughout (assay): PTP IC50 assay, pNPP or FDP as substrate
Common to all, as to format: biochemical

For one assay, the target named is T1, PTP 1B (Homo sapiens, UniProt P18031).
T1 construct: made in house; host or cells: Sf-9 insect cells (pFastBac-G2T)
T1 sequence (P18031 1-435): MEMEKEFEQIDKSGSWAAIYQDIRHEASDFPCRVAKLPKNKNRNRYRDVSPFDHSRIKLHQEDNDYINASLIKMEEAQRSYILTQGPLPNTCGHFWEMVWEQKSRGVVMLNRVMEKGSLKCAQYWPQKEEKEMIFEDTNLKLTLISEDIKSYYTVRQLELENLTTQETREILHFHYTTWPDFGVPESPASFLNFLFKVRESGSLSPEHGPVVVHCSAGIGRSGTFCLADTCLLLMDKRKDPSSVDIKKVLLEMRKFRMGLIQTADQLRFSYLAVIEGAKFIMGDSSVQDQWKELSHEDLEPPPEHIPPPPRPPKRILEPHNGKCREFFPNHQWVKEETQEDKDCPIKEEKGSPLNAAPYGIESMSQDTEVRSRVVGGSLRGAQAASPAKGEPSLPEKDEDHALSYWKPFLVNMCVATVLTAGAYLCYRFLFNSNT
Conditions: pNPP or FDP as substrate, 25° C.; read-out: PTP IC50 1B. The method, then:
(§1) The following in vitro assay procedure is preferred to determine the level of activity and effect of the different compounds of the present invention on one or more of the PTPs. Similar assays can be designed along the same lines for any PTP using techniques well known in the art.
(§2) The catalytic assays described herein are performed in a 96-well format. The general procedure begins with the determination of PTP optimal pH using a three-component buffer system that minimizes ionic strength variations across a wide range of buffer pH. Next, the Michaelis-Menten constant, or Km, is determined for each specific substrate-PTP system. This Km value is subsequently used as the substrate reaction concentration for compound screening. Finally, the test PTP is exposed to varying concentrations of compound for fifteen minutes and allowed to react with substrate for ten minutes. The results are plotted as percent inhibition versus compound concentration and the IC50 interpolated from the plot.
(§3) All assays were performed using pNPP or FDP as substrate. The optimum pH was determined for each PTP used.
(§4) PTPase activity was assayed at 25° C. in a 100-μl reaction mixture containing an appropriate concentration of pNPP or FDP as substrate. The reaction was initiated by addition of the PTP and quenched after 10 min by addition of 50 μl of IN NaOH. The non-enzymatic hydrolysis of the substrate was corrected by measuring the control without the addition of the enzyme. The amount of p-nitrophenol produced was determined from the absorbance at 410 nm. To determine the kinetic parameter, Km, the initial velocities were measured at various substrate concentrations and the data were fitted to the Michaelis equation where velocity=(Vmax*[S])/(Km+[S]), and [S]=substrate reaction concentration.
(§5) The effect of the compounds on PTP was evaluated at 25° C. using pNPP or FDP as substrate. PTP was pre-incubated for fifteen minutes with various concentrations of compound. Substrate was then added at a fixed concentration (usually equal to the Km previously calculated). After 10 minutes, NaOH was added to stop the reaction. The hydrolysis of pNPP was followed at 410 nm on the Biotek Powerwave 200 microplate scanning spectrophotometer. The percent inhibition was calculated as follows: Percent Inhibition=[(control signal−compound signal)/control signal] ×100%. The IC50 was then determined by interpolation of a percent inhibition versus compound concentration plot.
(§6) Plasmids designed for bacterial GST-PTP fusion protein expression were derived by insertion of PCR-generated human PTP fragments into pGEX vectors (Pharmacia Biotech). Several of these constructs were then used to subclone phosphatases into pFastBac-1for expression in Sf-9 insect cells. Oligonucleotides used for the initial amplification of PTP genes are shown below. The cDNAs were prepared using the Gilbo BRL superscript preamplification system on RNAs purchased from Clontech.
The PTP1b cDNA was amplified from human placenta single strand cDNA (Clontech RNA) using the following oligonucleotides: 5′oligo: 5′-[…] (SEQ ID NO: 4) 3′oligo: 5′-[…] (SEQ ID NO: 5) It was subsequently ligated into pFasBac G2TBamH1Xba-1 sites.

In the next assay the target is T2, PTP SIGMA (Homo sapiens, UniProt Q13332).
T2 construct: made in house; host or cells: E. coli BL-21 (pGEX 6P-1)
T2 sequence (Q13332 1320-1660 limits assumed): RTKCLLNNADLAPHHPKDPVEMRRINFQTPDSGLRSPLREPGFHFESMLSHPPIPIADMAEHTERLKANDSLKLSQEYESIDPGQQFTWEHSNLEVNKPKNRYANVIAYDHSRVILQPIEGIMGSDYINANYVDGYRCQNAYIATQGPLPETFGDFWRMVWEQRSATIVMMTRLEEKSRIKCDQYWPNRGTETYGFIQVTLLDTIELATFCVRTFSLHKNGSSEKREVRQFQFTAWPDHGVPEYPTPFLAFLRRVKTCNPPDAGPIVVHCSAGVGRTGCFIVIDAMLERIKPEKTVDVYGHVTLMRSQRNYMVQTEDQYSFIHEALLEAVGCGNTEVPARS
Conditions: pNPP or FDP as substrate, 25° C.; read-out: PTP IC50 Sigma. The method, then:
as §1, §2, §3, §4, §5, §6
The PTP Sigma cDNA was amplified from human brain single strand cDNA (Clontech RNA) using the following oligonucleotides: 5′oligo: 5′-[…]-3′ (SEQ ID NO: 12) 3′oligo: 5′-[…]-3′ (SEQ ID NO: 13) and subsequently ligated into pGex 6P-1 Eco RI/Xho I sites.

The target in another assay is T3, PTP SHP2 (Homo sapiens, UniProt Q06124).
T3 construct: The catalytic domain was amplified using the following oligonucleotides; made in house; host or cells: Sf-9 insect cells (pFastBac-G2T)
T3 sequence (Q06124 247-517 limits assumed): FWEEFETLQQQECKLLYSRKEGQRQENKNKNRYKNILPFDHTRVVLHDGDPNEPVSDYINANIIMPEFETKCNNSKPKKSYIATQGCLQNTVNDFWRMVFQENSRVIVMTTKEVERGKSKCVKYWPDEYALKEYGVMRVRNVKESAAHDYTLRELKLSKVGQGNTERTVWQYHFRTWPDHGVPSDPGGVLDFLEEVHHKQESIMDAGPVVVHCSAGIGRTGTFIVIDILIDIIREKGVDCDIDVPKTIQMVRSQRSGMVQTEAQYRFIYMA
Conditions: pNPP or FDP as substrate, 25° C.; read-out: PTP IC50 SHP2. The method, then:
as §1, §2, §3, §4, §5, §6
SHP-2 cDNA was used as described earlier (Vogel W., et al.,1993, Science, 259:1611-4). The catalytic domain was amplified using the following oligonucleotides 5′oligo: 5′-[…]-3′ (SEQ ID NO: 2) 3′oligo: 5′-[…]-3′ (SEQ ID NO: 3) and subsequently subcloned into BamH1-Xba-1 sites. It was then ligated into pfas Bac-G2T BamH1-Xba-1 sites.

For `O=C(Cc1ccccc1CC(=O)Nc1cccc(S(=O)(=O)C(F)(F)F)c1)Nc1cccc(S(=O)(=O)C(F)(F)F)c1` [Example 20, N-(3-Trifluoromethanesulfonyl-phenyl)-2-{2-[(3-trifluoromethanesulfonyl-phenylcarbamoyl)-methyl]-phenyl}-acetamide], the pIC50 at PTP 1B is 4.36; on PTP SIGMA, 4.64; on PTP SHP2 it was 4.27.
The corresponding values for `CC(C)(COc1ccc(NS(=O)(=O)C(F)(F)F)cc1)COc1ccc(NS(=O)(=O)C(F)(F)F)cc1` [Example 68, 1,3-Bis(4-trifluoromethylsulfonamidophenoxy)-2,2-dimethylpropane] are 4.35, 4.94 and 5.21.
Consider `O=[N+]([O-])c1cc(S(=O)(=O)C(F)(F)F)ccc1Oc1cc(CN2CCOCC2)c(Oc2ccc(S(=O)(=O)C(F)(F)F)cc2[N+](=O)[O-])cc1CN1CCOCC1` [Example 23, 3,6-Bis-(morpholin-4-ylmethyl)-2,5-bis-(2-nitro-4-trifluoromethanesulfonyl-phenoxy)-benzene], for which the figures for the pIC50 on PTP 1B, at PTP SIGMA and on PTP SHP2 were 4.94, 5.07 and 4.56, respectively.
As to `COC(=O)c1cc(Oc2ccc(S(=O)(=O)C(F)(F)F)cc2[N+](=O)[O-])n(-c2cc(C(F)(F)F)cc(C(F)(F)F)c2)n1` [Example 16, 1-(3,5-Bis-trifluoromethyl-phenyl)-5-(2-nitro-4-trifluoromethanesulfonyl-phenoxy)-1H-pyrazole-3-carboxylic acid methyl ester], the values for the pIC50 at PTP 1B, on PTP SIGMA and on PTP SHP2 were < 4.00, 4.53 and < 4.00, respectively.
On to `O=S(=O)(Nc1ccc(-c2nnc(-c3ccc(NS(=O)(=O)C(F)(F)F)cc3)o2)cc1)C(F)(F)F` [Example 75, 2,5-Bis(4-trifluoromethylsulfonamidophenyl)-(1,3,4)oxadiazole], for which the pIC50 is 5.08 on PTP 1B, 4.88 at PTP SIGMA and 5.10 on PTP SHP2.
For `O=C(c1ccccc1)N(Cc1ccc(S(=O)(=O)C(F)(F)F)cc1)Cc1ccc(S(=O)(=O)C(F)(F)F)cc1` [Example 3, N,N-Bis(4-trifluoromethylsulfonylbenzyl)benzamide], in that order: 4.35, 4.37 and 4.13.
For `CCOC(=O)COc1ccc(S(=O)(=O)c2ccc(Oc3ccc(S(=O)(=O)C(F)(F)F)cc3)cc2)cc1` [Example 19, {4-[4-(4-trifluoromethanesulfonyl-phenoxy)-benzenesulfonyl]-phenoxy}-acetic acid ethyl ester], in that order: 4.37, 4.03 and < 4.00.
Consider “1-(4-Aminophenoxy)-4-trifluoromethylsulfonamidophenoxy benzene [Example 72]”, for which the pIC50 is 4.55 at PTP 1B, 4.39 at PTP SIGMA and 4.77 on PTP SHP2.
For `O=C(Cc1ccc(CC(=O)Nc2cccc(S(=O)(=O)C(F)(F)F)c2)cc1)Nc1cccc(S(=O)(=O)C(F)(F)F)c1` [Example 22, N-(3-Trifluoromethanesulfonyl-phenyl)-2-{4-[(3-trifluoromethanesulfonyl-phenylcarbamoyl)-methyl]-phenyl}-acetamide], in that order: 4.59, 5.11 and 4.79.
The corresponding values for `O=S(=O)(c1ccc(COc2ccc(S(=O)(=O)C(F)(F)F)cc2)cc1)C(F)(F)F` [Example 2, 4-Trifluoromethylsulfonylbenzyl 4-trifluoromethylsulfonylphenyl ether] are 4.25, 4.52 and 4.37.
Take `O=C(NCc1ccc(S(=O)(=O)C(F)(F)F)cc1)c1ccc(S(=O)(=O)C(F)(F)F)cc1` [Example 5, N-(4-Trifluoromethylsulfonylbenzyl)-4-trifluoromethylsulfonylbenzamide]: the pIC50 at PTP 1B, at PTP SIGMA and at PTP SHP2 was < 4.00 each time.
As for `CCNc1ccc(S(=O)(=O)C(F)(F)F)cc1NC(=O)Cc1ccc(S(C)(=O)=O)cc1` [Example 25, N-(2-Ethylamino-5-trifluoromethanesulfonyl-phenyl)-2-(4-methanesulfonyl-phenyl)-acetamide], the pIC50 at PTP 1B is 4.79; on PTP SIGMA, < 4.15; on PTP SHP2, < 4.00.
For `COC(=O)c1cc(Oc2ccc(S(=O)(=O)C(F)(F)F)cc2[N+](=O)[O-])cc(Oc2ccc(S(=O)(=O)C(F)(F)F)cc2[N+](=O)[O-])c1` [Example 11, 3,5-Bis-(2-nitro-4-trifluoromethanesulfonyl-phenoxy)-benzoic acid methyl ester], in that order: < 4.00, 4.62 and < 4.00.
Consider `O=S(=O)(Nc1ccc(Oc2ccc(NS(=O)(=O)C(F)(F)F)cc2)cc1)C(F)(F)F` [Example 73, Bis(4-trifluoromethylsulfonamidophenyl) ether], for which the pIC50 on PTP 1B, at PTP SIGMA and at PTP SHP2 was < 4.00 each time.
Consider `COC(=O)c1c(Oc2ccc(S(=O)(=O)C(F)(F)F)cc2[N+](=O)[O-])cc(C)cc1Oc1ccc(S(=O)(=O)C(F)(F)F)cc1[N+](=O)[O-]` [Example 13, 4-Methyl-2,6-bis-(2-nitro-4-trifluoromethanesulfonyl-phenoxy)-benzoic acid methyl ester], for which the pIC50 was < 4.00 on PTP 1B, 4.07 on PTP SIGMA and < 4.00 on PTP SHP2.

For orientation: pIC50 means the negative decadic logarithm of the IC50, by convention in mol/L.
